Laboratory results taken from patent US4201782A, “Thiadiazolyl cephalosporin analogs” (Shionogi & Co., Ltd., priority 1977, dated 1980).

Columns and labels:
S. aureus 209P JC-1 = test: MIC by agar-dilution, S. aureus 209P JC-1; format: cell-based; details: Staphylococcus aureus, as sodium salt, pH 7.0, inoculum 10^6, read-out: Minimal Inhibitory Concentration
S. aureus Smith = test: MIC by agar-dilution, S. aureus Smith; format: cell-based; details: Staphylococcus aureus, as sodium salt, pH 7.0, inoculum 10^6, read-out: Minimal Inhibitory Concentration
S. aureus 077 = test: MIC by agar-dilution, S. aureus 077; format: cell-based; details: Staphylococcus aureus, as sodium salt, pH 7.0, inoculum 10^6, read-out: Minimal Inhibitory Concentration
S. aureus C-14 = test: MIC by agar-dilution, S. aureus C-14; format: cell-based; details: Staphylococcus aureus, C14, as sodium salt, pH 7.0, inoculum 10^6, read-out: Minimal Inhibitory Concentration
S. pyogenes C-203 = test: MIC by agar-dilution, S. pyogenes C-203; format: cell-based; details: Streptococcus pyogenes, C203, as sodium salt, pH 7.0, inoculum 10^6, read-out: Minimal Inhibitory Concentration
S. pneumoniae I = test: MIC by agar-dilution, S. pneumoniae I; format: cell-based; details: Streptococcus pneumoniae, as sodium salt, pH 7.0, inoculum 10^6, read-out: Minimal Inhibitory Concentration
E. coli H = test: MIC by agar-dilution, E. coli H; format: cell-based; details: Escherichia coli, as sodium salt, pH 7.0, inoculum 10^6, read-out: Minimal Inhibitory Concentration
E. coli NIHJ JC-2 = test: MIC by agar-dilution, E. coli NIHJ JC-2; format: cell-based; details: Escherichia coli, NIHJJC2, as sodium salt, pH 7.0, inoculum 10^6, read-out: Minimal Inhibitory Concentration
E. coli EC-14 = test: MIC by agar-dilution, E. coli EC-14; format: cell-based; details: Escherichia coli, EC14, as sodium salt, pH 7.0, inoculum 10^6, read-out: Minimal Inhibitory Concentration
E. coli 377 = test: MIC by agar-dilution, E. coli 377; format: cell-based; details: Escherichia coli, as sodium salt, pH 7.0, inoculum 10^6, read-out: Minimal Inhibitory Concentration
E. coli 73 = test: MIC by agar-dilution, E. coli 73; format: cell-based; details: Escherichia coli, as sodium salt, pH 7.0, inoculum 10^6, read-out: Minimal Inhibitory Concentration
K. pneumoniae SHIONOGI = test: MIC by agar-dilution, K. pneumoniae SHIONOGI; format: cell-based; details: Klebsiella pneumoniae, as sodium salt, pH 7.0, inoculum 10^6, read-out: Minimal Inhibitory Concentration
K. pneumoniae 363 = test: MIC by agar-dilution, K. pneumoniae 363; format: cell-based; details: Klebsiella pneumoniae, as sodium salt, pH 7.0, inoculum 10^6, read-out: Minimal Inhibitory Concentration
P. mirabilis PR-4 = test: MIC by agar-dilution, P. mirabilis PR-4; format: cell-based; details: Proteus mirabilis, PR4, as sodium salt, pH 7.0, inoculum 10^6, read-out: Minimal Inhibitory Concentration
P. morganii No. 9 = test: MIC by agar-dilution, P. morganii No. 9; format: cell-based, Proteus morganii; details: Morganella morganii, as sodium salt, pH 7.0, inoculum 10^6, read-out: Minimal Inhibitory Concentration
P. vulgaris CN-329 = test: MIC by agar-dilution, P. vulgaris CN-329; format: cell-based; details: Proteus vulgaris, CN329, as sodium salt, pH 7.0, inoculum 10^6, read-out: Minimal Inhibitory Concentration
P. vulgaris No. 3 = test: MIC by agar-dilution, P. vulgaris No. 3; format: cell-based; details: Proteus vulgaris, as sodium salt, pH 7.0, inoculum 10^6, read-out: Minimal Inhibitory Concentration
E. cloacae 233 = test: MIC by agar-dilution, E. cloacae 233; format: cell-based; details: Enterobacter cloacae, as sodium salt, pH 7.0, inoculum 10^6, read-out: Minimal Inhibitory Concentration
E. cloacae 13047 = test: MIC by agar-dilution, E. cloacae 13047; format: cell-based; details: Enterobacter cloacae, as sodium salt, pH 7.0, inoculum 10^6, read-out: Minimal Inhibitory Concentration
S. marcescens 13880 = test: MIC by agar-dilution, S. marcescens 13880; format: cell-based; details: Serratia marcescens, as sodium salt, pH 7.0, inoculum 10^6, read-out: Minimal Inhibitory Concentration
P. aeruginosa 25619 = test: MIC by agar-dilution, P. aeruginosa 25619; format: cell-based; details: Pseudomonas aeruginosa, as sodium salt, pH 7.0, inoculum 10^6, read-out: Minimal Inhibitory Concentration

SMILES	MIC (S. aureus 209P JC-1) [µg/mL]	MIC (S. aureus Smith) [µg/mL]	MIC (S. aureus 077) [µg/mL]	MIC (S. aureus C-14) [µg/mL]	MIC (S. pyogenes C-203) [µg/mL]	MIC (S. pneumoniae I) [µg/mL]	MIC (E. coli H) [µg/mL]	MIC (E. coli NIHJ JC-2) [µg/mL]	MIC (E. coli EC-14) [µg/mL]	MIC (E. coli 377) [µg/mL]	MIC (E. coli 73) [µg/mL]	MIC (K. pneumoniae SHIONOGI) [µg/mL]	MIC (K. pneumoniae 363) [µg/mL]	MIC (P. mirabilis PR-4) [µg/mL]	MIC (P. morganii No. 9) [µg/mL]	MIC (P. vulgaris CN-329) [µg/mL]	MIC (P. vulgaris No. 3) [µg/mL]	MIC (E. cloacae 233) [µg/mL]	MIC (E. cloacae 13047) [µg/mL]	MIC (S. marcescens 13880) [µg/mL]	also measured
CO[C@@]1(NC(=O)C(C(=O)O)c2ccsc2)C(=O)N2C(C(=O)O)=C(CSc3nnc(C)s3)CO[C@@H]21 (stereo partly drawn) [Compound (3), 7α-methoxy-7β-[α-(3-thienyl)-α-carboxyacetamido]-3-(2-methyl-1,3,4-thiadiazol-5-yl)thiomethyl-1-dethia-1-oxa-3-cephem-4-carboxylic acid]	6.25	6.25	6.25	6.25	0.78	3.13	0.05	0.39	0.2	0.78	1.56	0.2	0.78	0.1	0.2	0.1	0.39	12.5	25	1.56	MIC (P. aeruginosa 25619): 25 µg/mL
CO[C@@]1(NC(=O)C(C(=O)O)c2ccsc2)C(=O)N2C(C(=O)O)=C(CSc3nncs3)CO[C@@H]21 (stereo partly drawn) [Compound (4), 7α-methoxy-7β-[α-(3-thienyl)-α-carboxyacetamido]-3-(1,3,4-thiadiazol-5-yl)thiomethyl-1-dethia-1-oxa-3-cephem-4-carboxylic acid]	6.25	6.25	6.25	6.25	3.13	6.25	0.1	0.2	0.1	0.39	0.78	0.2	0.2	0.2	0.2	0.2	0.39	6.25	12.5	0.39	MIC (P. aeruginosa 25619): 25 µg/mL
CO[C@@]1(NC(=O)C(C(=O)O)c2ccc(O)cc2)C(=O)N2C(C(=O)O)=C(CSc3nnc(C)s3)CO[C@@H]21 (stereo partly drawn) [Compound (1), 7α-methoxy-7β-(α-p-hydroxyphenyl-α-carboxyacetamido)-3-(2-methyl-1,3,4-thiadiazol-5-yl)thiomethyl-1-dethia-1-oxa-3-cephem-4-carboxylic acid]	12.5	25	25	25	3.13	3.13	0.2	0.78	0.78	1.56	6.25	0.78	0.39	0.39	0.78	0.39	0.78	1.6	50	3.13	MIC (P. aeruginosa 25619): 25 µg/mL
CO[C@@]1(NC(=O)C(C(=O)O)c2ccc(O)cc2)C(=O)N2C(C(=O)O)=C(CSc3nncs3)CO[C@@H]21 (stereo partly drawn) [Compound (2), 7α-methoxy-7β-(α-p-hydroxyphenyl-α-carboxyacetamido)-3-(1,3,4-thiadiazol-5-yl)thiomethyl-1-dethia-1-oxa-3-cephem-4-carboxylic acid]	12.5	12.5	25	25	3.13	6.25	0.2	0.39	0.39	0.78	3.13	0.39	0.39	0.39	0.78	0.78	0.78	6.25	25	1.56	MIC (P. aeruginosa 25619): 25 µg/mL
